Data published in ChEMBL document CHEMBL1144434, “Structure-activity relationships within a series of caspase inhibitors. Part 2: Heterocyclic warheads” (Bioorg Med Chem Lett, 2005).

Tests used:
[1] = biological target: T1, Caspase-3 (Homo sapiens) (UniProt P42574); test: Binding affinity against Caspase-3
T1 sequence (whole entry): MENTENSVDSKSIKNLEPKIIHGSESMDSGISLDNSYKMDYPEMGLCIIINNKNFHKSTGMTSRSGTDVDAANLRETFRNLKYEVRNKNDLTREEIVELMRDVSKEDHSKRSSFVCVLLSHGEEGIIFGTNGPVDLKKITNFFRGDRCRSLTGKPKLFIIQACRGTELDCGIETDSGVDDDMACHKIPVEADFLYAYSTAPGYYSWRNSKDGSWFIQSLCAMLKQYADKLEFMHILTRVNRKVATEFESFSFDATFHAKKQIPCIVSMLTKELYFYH

[2] = biological target: Caspase-8 (Homo sapiens) (UniProt Q14790); test: Binding affinity against Caspase-8
Caspase-8 (Homo sapiens), sequence (Q14790 217-374 limits assumed): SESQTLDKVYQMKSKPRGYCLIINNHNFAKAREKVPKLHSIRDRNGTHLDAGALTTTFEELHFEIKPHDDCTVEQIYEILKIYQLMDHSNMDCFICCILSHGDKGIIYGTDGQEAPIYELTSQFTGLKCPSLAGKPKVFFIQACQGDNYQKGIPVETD
Caspase-8 (Homo sapiens), sequence (Q14790 385-479 limits assumed): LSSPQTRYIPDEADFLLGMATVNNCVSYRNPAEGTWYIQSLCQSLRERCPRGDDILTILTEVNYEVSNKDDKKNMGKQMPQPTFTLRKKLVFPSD

[3] = biological target: T2, Caspase-6 (Homo sapiens) (UniProt P55212); test: Reversible inhibition against Caspase-6
T2 sequence (whole entry): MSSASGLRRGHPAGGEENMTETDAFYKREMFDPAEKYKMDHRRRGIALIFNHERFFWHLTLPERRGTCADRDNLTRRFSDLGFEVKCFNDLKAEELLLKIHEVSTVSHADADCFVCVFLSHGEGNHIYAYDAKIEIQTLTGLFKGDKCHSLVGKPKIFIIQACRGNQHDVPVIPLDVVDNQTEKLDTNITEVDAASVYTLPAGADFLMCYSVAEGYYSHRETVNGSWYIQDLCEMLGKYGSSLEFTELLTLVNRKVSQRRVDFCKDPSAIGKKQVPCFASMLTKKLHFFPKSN

[4] = biological target: T3, Caspase-1 (Mus musculus) (UniProt P29452); test: Binding affinity against mouse Caspase-1
T3 sequence (whole entry): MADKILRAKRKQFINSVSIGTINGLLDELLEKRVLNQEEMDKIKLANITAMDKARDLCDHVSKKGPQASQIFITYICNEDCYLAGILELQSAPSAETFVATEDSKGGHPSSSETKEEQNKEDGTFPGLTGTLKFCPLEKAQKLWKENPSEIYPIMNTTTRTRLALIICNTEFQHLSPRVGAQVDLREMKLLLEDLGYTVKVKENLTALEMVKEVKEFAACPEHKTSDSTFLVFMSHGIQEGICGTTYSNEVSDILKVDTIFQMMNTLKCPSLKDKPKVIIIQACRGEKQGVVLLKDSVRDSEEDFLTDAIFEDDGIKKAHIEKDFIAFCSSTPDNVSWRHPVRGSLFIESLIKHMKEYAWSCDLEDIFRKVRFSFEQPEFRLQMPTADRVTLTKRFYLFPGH

[5] = tested on: Jurkat; test: Inhibitory concentration for cellular activity in jurkat assay; type: functional, cell-based; conditions: Homo sapiens
[6] = biological target: T2, Caspase-6 (Homo sapiens); test: Binding affinity against Caspase-6

| SMILES | k3/ki [1] | k3/ki [2] | k3/ki [3] | k3/ki [4] | IC50 [5] | k3/ki [6] |
| --- | --- | --- | --- | --- | --- | --- |
| CC(C)[C@H](NC(=O)COc1cccc2ccccc12)C(=O)N[C@@H](CC(=O)O)C(=O)CSc1nc2ccccc2[nH]1 | 1770 1/m/s | 10 1/m/s |  | 168 1/m/s | > 200 µM | 25 1/m/s |
| CC(C)[C@H](NC(=O)COc1cccc2ccccc12)C(=O)N[C@@H](CC(=O)O)C(=O)COc1nccc(C(F)(F)F)n1 | 0 1/m/s | 0 1/m/s |  | 0 1/m/s | > 200 µM | 0 1/m/s |
| CC(C)[C@H](NC(=O)COc1cccc2ccccc12)C(=O)N[C@@H](CC(=O)O)C(=O)COc1cc(C(F)(F)F)ncn1 | 1750 1/m/s | 0 1/m/s |  | 479 1/m/s | > 200 µM | 156 1/m/s |
| CC(C)[C@H](NC(=O)COc1cccc2ccccc12)C(=O)N[C@@H](CC(=O)O)C(=O)CSc1ncc[nH]1 | 850 1/m/s | 0 1/m/s |  | 173 1/m/s | > 200 µM | 22 1/m/s |
| CC(C)[C@H](NC(=O)COc1cccc2ccccc12)C(=O)N[C@@H](CC(=O)O)C(=O)COc1nncc(Cl)c1Cl | 1760 1/m/s | 0 1/m/s |  | 152 1/m/s | > 200 µM | 8 1/m/s |
| CC(C)[C@H](NC(=O)COc1cccc2ccccc12)C(=O)N[C@@H](CC(=O)O)C(=O)COn1nnc2ccccc21 | 121000 1/m/s | 14500 1/m/s |  | 28300 1/m/s | > 200 µM | 8530 1/m/s |
| Cc1cc(C)nc(SCC(=O)[C@H](CC(=O)O)NC(=O)[C@@H](NC(=O)COc2cccc3ccccc23)C(C)C)n1 | 7130 1/m/s | 120 1/m/s |  | 950 1/m/s | > 200 µM | 656 1/m/s |

Results, then the molecule that gave them:

| k3/ki [1] | k3/ki [2] | k3/ki [3] | k3/ki [4] | IC50 [5] | k3/ki [6] | SMILES |
| --- | --- | --- | --- | --- | --- | --- |
| 5670 1/m/s | 1140 1/m/s | 0 1/m/s | 1440 1/m/s | > 200 µM |  | CCOC(=O)c1c(C)noc1OCC(=O)[C@H](CC(=O)O)NC(=O)[C@@H](NC(=O)COc1cccc2ccccc12)C(C)C |
| 1390 1/m/s | 0 1/m/s |  | 199 1/m/s | > 200 µM | 22 1/m/s | CC(C)[C@H](NC(=O)COc1cccc2ccccc12)C(=O)N[C@@H](CC(=O)O)C(=O)CSc1nc(-c2ccccc2)c(-c2ccccc2)[nH]1 |
| 733 1/m/s | 8 1/m/s |  | 138 1/m/s | > 200 µM | 5 1/m/s | CC(C)[C@H](NC(=O)COc1cccc2ccccc12)C(=O)N[C@@H](CC(=O)O)C(=O)COc1ccccn1 |
| 0 1/m/s | 0 1/m/s |  | 0 1/m/s | 166 µM | 0 1/m/s | CC(C)[C@H](NC(=O)COc1cccc2ccccc12)C(=O)N[C@@H](CC(=O)O)C(=O)COc1cncc2ccccc12 |
